Assay results taken from patent US20080045519A1, “Method to Fight Against Insects Including the Use of Hydrocarbon Compounds” (priority 2004, published 2008).
Values joined by “and” are separate entries in the source; they are usually repeats but may differ in a detail not shown here. Equal values may be shown once.

Test system: worker termites of Reticulitermes santonensis type
Assay: Insecticidal activity of fipronil plus hydrocarbon compound mixture, termite mortality after 3 days (Example 4)
Format: in vivo
Conditions: matrix sprayed with hydrocarbon compound mixture (Mixture B), 100 termites
Description: The experiment is conducted in a LAB test box (6 cm×9 cm) containing on the bottom 2 mm of wet Fontainebleau sand and is repeated five times. In the box, a matrix is placed, consisting of a foam cube in which holes are made with a diameter of 5 mm, over which a small piece of poplar wood is placed (1 cm×2 cm×2 cm). The foam is impregnated with cold fipronil. The matrix is sprayed with a hydrocarbon compound mixture including 11.4% of 5-methylpentacosane; 36.3% of 11-methylpentacosane; 19.6% of (Z)-9-pentacosene; 27.7% of n-pentacosane, and 5% of n-hexacosane. Only 4 faces are sprayed. The top and the bottom of the matrix are not treated.
In the box, an untreated piece of poplar wood is also placed in order to recreate a natural situation as exactly as possible.
100 worker termites of Reticulitermes santonensis type are placed in the box and their mortality after 3 days is evaluated. Various concentrations of cold fipronil are tested: 0.5 ppm, 1 ppm, 2 ppm, 5 ppm, and 7 ppm.

N#Cc1nn(-c2c(Cl)cc(C(F)(F)F)cc2Cl)c(N)c1[S+]([O-])C(F)(F)F (stereo not drawn) [Fipronil, fipronil]
Number of termites dead after 3 days (fipronil at 0.5 ppm, average of 5 trials): 0
Number of termites dead after 3 days (fipronil at 0.5 ppm, single trials): 0
Number of termites dead after 3 days (fipronil at 1 ppm, average of 5 trials): 0
Number of termites dead after 3 days (fipronil at 1 ppm, single trials): 0
Number of termites dead after 3 days (fipronil at 2 ppm, average of 5 trials): 20
Number of termites dead after 3 days (fipronil at 5 ppm, average of 5 trials): 50.4
Number of termites dead after 3 days (fipronil at 5 ppm, single trials): 42 and 45 and 59 and 56 and 50
Number of termites dead after 3 days (fipronil at 7 ppm, average of 5 trials): 50.8
Number of termites dead after 3 days (fipronil at 7 ppm, single trials): 60 and 42 and 55 and 34 and 63
